Assays:
[1] = target: T1, Interleukin-1 receptor-associated kinase 4 (Homo sapiens) (UniProt Q9NWZ3); experiment: Inhibition of human IRAK4 catalytic domain expressed in baculovirus assessed as substrate phosphorylation using fluorescence-labelled peptides as substrate at 95 uM after 90 mins by microfluidic peptide phosphorylation assay
T1 sequence (whole entry): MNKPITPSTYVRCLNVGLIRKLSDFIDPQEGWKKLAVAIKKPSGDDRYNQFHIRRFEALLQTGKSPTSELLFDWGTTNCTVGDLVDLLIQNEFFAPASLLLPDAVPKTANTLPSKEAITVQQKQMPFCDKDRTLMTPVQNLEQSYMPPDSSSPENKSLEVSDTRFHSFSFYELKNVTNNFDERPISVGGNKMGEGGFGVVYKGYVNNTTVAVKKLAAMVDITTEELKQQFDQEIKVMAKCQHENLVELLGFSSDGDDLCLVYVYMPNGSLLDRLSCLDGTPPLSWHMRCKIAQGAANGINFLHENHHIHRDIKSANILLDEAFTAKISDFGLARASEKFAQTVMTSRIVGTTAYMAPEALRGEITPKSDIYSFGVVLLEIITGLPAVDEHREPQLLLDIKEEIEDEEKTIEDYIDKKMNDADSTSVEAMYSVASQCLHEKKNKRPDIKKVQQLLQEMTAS

[2] = target: Fibroblast growth factor receptor 2 (Homo sapiens) (UniProt P21802); experiment: Inhibition of human FGFR2 catalytic domain expressed in baculovirus assessed as substrate phosphorylation using fluorescence-labelled peptides as substrate at 0.06 uM after 90 mins by microfluidic peptide phosphorylation assay
Chain of Fibroblast growth factor receptor 2 (Homo sapiens) (P21802 22-821 limits assumed): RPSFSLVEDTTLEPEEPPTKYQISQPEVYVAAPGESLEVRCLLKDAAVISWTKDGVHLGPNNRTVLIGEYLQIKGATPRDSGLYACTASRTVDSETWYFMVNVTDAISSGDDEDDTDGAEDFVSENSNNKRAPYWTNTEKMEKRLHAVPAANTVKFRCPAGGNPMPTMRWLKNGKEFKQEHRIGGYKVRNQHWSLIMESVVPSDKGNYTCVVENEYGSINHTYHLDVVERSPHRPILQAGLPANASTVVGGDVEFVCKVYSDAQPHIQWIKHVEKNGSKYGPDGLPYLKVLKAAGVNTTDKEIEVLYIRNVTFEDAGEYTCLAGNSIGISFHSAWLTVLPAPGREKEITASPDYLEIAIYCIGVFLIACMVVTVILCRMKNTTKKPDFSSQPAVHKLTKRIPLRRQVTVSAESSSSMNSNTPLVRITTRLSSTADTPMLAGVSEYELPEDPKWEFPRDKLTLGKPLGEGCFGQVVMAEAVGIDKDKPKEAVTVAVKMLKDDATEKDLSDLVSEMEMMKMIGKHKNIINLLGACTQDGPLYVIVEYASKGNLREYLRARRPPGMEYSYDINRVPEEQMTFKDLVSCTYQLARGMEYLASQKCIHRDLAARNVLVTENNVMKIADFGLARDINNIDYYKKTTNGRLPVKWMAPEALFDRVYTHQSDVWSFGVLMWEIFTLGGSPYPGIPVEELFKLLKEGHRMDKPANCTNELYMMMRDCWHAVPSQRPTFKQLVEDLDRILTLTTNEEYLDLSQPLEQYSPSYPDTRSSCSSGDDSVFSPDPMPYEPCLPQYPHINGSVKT

[3] = target: T2, Serine/threonine-protein kinase Sgk2 (Homo sapiens) (UniProt Q9HBY8); experiment: Inhibition of human full length SGK2 expressed in baculovirus assessed as substrate phosphorylation using fluorescence-labelled peptides as substrate at 0.1 uM after 90 mins by microfluidic peptide phosphorylation assay
T2 sequence (whole entry): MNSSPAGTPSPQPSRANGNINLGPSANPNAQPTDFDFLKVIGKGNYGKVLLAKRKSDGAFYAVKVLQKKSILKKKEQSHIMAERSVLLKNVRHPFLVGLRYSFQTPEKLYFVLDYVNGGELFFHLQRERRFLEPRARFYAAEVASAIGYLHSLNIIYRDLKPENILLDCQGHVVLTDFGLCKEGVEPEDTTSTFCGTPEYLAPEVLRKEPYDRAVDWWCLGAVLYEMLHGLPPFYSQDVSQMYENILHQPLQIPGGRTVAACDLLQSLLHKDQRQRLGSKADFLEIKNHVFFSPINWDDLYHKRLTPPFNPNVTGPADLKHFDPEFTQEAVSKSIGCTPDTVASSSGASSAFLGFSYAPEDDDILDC

[4] = target: Protein kinase C beta type (Homo sapiens) (UniProt P05771); conditions: 0.1 uM
Chain of Protein kinase C beta type (Homo sapiens) (P05771 2-671 limits assumed): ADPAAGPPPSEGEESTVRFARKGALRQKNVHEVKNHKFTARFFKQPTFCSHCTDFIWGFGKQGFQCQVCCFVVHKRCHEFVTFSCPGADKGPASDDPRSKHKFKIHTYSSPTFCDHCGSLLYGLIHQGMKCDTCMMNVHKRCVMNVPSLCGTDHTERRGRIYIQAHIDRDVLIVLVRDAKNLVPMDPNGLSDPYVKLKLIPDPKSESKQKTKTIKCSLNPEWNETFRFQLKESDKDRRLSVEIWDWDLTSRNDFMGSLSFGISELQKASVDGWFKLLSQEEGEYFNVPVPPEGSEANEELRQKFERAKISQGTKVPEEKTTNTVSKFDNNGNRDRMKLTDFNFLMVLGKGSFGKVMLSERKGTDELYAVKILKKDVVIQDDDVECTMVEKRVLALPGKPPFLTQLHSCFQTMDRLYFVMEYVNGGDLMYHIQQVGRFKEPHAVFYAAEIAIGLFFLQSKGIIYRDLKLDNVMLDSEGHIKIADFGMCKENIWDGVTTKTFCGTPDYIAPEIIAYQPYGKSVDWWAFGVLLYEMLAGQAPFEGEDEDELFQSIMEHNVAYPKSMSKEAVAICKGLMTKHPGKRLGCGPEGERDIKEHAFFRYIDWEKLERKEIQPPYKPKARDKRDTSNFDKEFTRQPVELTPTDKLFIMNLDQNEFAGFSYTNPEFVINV
Description: Inhibition of human full length PKC beta2 expressed in baculovirus assessed as substrate phosphorylation using fluorescence-labelled peptides as substrate at 0.1 uM after 90 mins by microfluidic peptide phosphorylation assay

[5] = target: Proto-oncogene tyrosine-protein kinase Src (Homo sapiens) (UniProt P12931); experiment: Inhibition of human full length SRC expressed in baculovirus assessed as substrate phosphorylation using fluorescence-labelled peptides as substrate at […] after 90 mins by microfluidic peptide phosphorylation assay
Chain of Proto-oncogene tyrosine-protein kinase Src (Homo sapiens) (P12931 2-536 limits assumed): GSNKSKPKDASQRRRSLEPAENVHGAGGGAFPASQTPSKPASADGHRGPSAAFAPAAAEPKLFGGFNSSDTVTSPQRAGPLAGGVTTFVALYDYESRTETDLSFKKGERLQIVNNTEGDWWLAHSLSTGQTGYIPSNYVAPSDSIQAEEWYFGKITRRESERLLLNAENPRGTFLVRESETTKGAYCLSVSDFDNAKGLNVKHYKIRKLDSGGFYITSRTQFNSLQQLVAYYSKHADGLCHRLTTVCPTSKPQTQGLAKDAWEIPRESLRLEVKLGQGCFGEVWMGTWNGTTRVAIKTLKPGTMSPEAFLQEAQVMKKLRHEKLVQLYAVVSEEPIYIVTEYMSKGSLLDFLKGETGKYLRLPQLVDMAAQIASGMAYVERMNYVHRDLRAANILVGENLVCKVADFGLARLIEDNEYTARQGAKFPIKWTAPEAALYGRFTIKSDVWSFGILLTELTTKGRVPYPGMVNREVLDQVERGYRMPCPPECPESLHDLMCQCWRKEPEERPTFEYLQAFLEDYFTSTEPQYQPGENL

[6] = target: Serine/threonine-protein kinase MARK2 (Homo sapiens) (UniProt Q7KZI7); experiment: Inhibition of human full length MARK2 expressed in baculovirus assessed as substrate phosphorylation using fluorescence-labelled peptides as substrate at 420 uM after 90 mins by microfluidic peptide phosphorylation assay
Chain of Serine/threonine-protein kinase MARK2 (Homo sapiens) (Q7KZI7 whole entry): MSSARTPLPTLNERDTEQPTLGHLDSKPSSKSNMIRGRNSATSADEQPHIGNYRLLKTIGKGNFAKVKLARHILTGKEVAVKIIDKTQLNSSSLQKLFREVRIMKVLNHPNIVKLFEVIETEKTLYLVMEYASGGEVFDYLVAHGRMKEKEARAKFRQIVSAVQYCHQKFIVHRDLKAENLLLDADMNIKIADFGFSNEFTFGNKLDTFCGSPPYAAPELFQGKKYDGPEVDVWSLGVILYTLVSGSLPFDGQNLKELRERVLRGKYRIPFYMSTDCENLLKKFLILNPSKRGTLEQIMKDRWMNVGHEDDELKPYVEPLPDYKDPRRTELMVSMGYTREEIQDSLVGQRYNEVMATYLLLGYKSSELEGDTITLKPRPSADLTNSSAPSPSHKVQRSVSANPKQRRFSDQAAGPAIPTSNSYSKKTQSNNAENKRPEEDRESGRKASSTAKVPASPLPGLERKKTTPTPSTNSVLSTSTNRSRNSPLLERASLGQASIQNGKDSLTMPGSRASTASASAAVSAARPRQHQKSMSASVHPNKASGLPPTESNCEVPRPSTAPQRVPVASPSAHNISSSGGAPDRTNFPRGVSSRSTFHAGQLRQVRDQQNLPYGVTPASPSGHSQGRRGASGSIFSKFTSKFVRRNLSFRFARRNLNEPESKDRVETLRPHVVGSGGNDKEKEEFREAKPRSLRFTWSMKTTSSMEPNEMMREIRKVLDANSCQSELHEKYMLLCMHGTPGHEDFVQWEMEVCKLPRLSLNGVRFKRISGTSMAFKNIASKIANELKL

[7] = target: T3, cGMP-dependent protein kinase 1 (Homo sapiens) (UniProt Q13976); experiment: Inhibition of human full length PKG-1beta expressed in baculovirus assessed as substrate phosphorylation using fluorescence-labelled peptides as substrate at 70 uM after 90 mins by microfluidic peptide phosphorylation assay
T3 sequence (whole entry): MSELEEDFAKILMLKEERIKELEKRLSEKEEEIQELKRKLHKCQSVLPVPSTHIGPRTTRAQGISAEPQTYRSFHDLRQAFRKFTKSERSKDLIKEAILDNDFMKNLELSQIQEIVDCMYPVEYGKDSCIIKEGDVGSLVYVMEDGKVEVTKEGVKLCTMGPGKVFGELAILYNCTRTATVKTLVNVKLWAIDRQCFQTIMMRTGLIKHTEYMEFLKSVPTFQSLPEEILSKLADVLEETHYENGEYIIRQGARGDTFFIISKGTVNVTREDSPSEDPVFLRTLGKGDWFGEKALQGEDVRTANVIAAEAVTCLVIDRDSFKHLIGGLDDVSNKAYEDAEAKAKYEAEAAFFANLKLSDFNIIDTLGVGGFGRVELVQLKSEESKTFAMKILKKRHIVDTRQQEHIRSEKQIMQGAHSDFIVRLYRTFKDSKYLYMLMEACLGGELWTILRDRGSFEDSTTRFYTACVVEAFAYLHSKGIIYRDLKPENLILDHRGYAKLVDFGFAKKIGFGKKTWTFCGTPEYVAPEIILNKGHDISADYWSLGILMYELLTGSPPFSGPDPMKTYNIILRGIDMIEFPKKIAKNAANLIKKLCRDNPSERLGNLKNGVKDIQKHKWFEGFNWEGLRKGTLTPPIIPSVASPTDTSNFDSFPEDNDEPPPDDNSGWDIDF

[8] = target: T4, Serine/threonine-protein kinase DCLK2 (Homo sapiens) (UniProt Q8N568); experiment: Inhibition of human full length DCAMKL2 expressed in baculovirus assessed as substrate phosphorylation using fluorescence-labelled peptides as substrate at 0.2 uM after 90 mins by microfluidic peptide phosphorylation assay
T4 sequence (whole entry): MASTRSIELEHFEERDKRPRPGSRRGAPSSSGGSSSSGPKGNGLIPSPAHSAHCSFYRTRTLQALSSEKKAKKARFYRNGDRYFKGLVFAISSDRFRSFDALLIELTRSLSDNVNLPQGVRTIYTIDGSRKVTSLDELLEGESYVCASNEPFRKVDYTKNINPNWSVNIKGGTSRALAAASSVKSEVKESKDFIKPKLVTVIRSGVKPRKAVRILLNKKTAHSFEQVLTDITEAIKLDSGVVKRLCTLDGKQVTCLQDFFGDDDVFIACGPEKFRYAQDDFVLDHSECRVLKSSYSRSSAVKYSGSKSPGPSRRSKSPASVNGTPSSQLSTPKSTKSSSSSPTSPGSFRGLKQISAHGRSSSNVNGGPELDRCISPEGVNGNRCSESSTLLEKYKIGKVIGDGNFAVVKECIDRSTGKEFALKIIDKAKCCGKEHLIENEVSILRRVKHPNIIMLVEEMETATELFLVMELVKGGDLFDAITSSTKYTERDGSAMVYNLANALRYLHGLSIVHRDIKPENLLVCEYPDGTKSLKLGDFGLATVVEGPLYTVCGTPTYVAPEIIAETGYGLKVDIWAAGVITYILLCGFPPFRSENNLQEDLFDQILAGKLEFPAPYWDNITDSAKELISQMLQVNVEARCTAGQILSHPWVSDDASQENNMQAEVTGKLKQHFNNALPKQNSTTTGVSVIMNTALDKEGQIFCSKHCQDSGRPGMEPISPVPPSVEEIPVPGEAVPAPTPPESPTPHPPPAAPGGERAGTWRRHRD

[9] = target: Ribosomal protein S6 kinase alpha-1 (Homo sapiens) (UniProt Q15418); experiment: Inhibition of human full length RSK1 expressed in baculovirus assessed as substrate phosphorylation using fluorescence-labelled peptides as substrate at 8 uM after 90 mins by microfluidic peptide phosphorylation assay
Chain of Ribosomal protein S6 kinase alpha-1 (Homo sapiens) (Q15418 whole entry): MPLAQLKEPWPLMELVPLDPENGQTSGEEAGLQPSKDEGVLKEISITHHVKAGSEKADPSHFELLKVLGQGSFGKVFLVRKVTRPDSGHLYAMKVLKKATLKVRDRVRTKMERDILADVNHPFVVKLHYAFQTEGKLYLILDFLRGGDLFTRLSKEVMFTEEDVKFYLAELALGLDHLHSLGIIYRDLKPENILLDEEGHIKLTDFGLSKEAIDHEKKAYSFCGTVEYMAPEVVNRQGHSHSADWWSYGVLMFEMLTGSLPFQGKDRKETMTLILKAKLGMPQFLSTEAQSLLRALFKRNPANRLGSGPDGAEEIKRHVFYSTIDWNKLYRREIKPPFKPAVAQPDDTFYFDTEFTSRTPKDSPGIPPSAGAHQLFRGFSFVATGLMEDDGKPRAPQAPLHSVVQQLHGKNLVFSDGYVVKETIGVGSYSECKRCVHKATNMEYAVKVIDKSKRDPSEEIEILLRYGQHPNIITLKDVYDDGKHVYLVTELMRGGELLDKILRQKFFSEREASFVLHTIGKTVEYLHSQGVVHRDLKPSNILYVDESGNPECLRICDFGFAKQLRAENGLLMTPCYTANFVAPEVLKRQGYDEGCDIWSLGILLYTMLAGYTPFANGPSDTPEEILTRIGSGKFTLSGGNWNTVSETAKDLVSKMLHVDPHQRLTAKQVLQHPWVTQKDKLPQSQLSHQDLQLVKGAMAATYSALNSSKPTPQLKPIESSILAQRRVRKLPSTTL

NCCc1ccc(-c2ncnc3[nH]cnc23)cc1
inhibition [1]: 34%

NC1(Cc2ccc(Cl)cc2)CCN(c2ncnc3[nH]ccc23)CC1
inhibition [2]: 0%

C[C@H](CN(C)C)Oc1nc(Nc2cc3cccc(Cl)c3cn2)cnc1C#N
inhibition [3]: 5.5% | inhibition [4]: 0%

COC(=O)c1cnc(Nc2cnc(C#N)cn2)cc1NCC1CCNCC1
inhibition [5]: 7.5%

c1nc(N2CCOCC2)c2nc[nH]c2n1
inhibition [6]: 88%

CNCc1ccc(-c2ncnc3[nH]cnc23)cc1
inhibition [7]: 95.5%

Clc1ccc(C2(c3ccc(-c4ncnc5[nH]cnc45)cc3)CCNCC2)cc1
inhibition [8]: 10%

NCC1CCN(c2ncnc3[nH]ccc23)CC1
inhibition [9]: 11.5%

Source: ChEMBL document CHEMBL3132769, “Fragment growing to retain or alter the selectivity of anchored kinase hinge-binding fragments” (Medchemcomm, 2014)
